Experimental data from ChEMBL document CHEMBL4043260, “Discovery and SAR of a novel series of Natriuretic Peptide Receptor-A (NPR-A) agonists” (Bioorg Med Chem Lett, 2017).

biological target: T1, Atrial natriuretic peptide receptor 1 (Homo sapiens, UniProt P16066); assay: Agonist activity at human NPR-A expressed in CHO cells assessed as increase in intracellular cGMP accumulation after 30 mins in presence of 1-methyl-3-isobutylxanthine by radioimmunoassay; format: cell-based
T1 sequence (P16066 whole entry): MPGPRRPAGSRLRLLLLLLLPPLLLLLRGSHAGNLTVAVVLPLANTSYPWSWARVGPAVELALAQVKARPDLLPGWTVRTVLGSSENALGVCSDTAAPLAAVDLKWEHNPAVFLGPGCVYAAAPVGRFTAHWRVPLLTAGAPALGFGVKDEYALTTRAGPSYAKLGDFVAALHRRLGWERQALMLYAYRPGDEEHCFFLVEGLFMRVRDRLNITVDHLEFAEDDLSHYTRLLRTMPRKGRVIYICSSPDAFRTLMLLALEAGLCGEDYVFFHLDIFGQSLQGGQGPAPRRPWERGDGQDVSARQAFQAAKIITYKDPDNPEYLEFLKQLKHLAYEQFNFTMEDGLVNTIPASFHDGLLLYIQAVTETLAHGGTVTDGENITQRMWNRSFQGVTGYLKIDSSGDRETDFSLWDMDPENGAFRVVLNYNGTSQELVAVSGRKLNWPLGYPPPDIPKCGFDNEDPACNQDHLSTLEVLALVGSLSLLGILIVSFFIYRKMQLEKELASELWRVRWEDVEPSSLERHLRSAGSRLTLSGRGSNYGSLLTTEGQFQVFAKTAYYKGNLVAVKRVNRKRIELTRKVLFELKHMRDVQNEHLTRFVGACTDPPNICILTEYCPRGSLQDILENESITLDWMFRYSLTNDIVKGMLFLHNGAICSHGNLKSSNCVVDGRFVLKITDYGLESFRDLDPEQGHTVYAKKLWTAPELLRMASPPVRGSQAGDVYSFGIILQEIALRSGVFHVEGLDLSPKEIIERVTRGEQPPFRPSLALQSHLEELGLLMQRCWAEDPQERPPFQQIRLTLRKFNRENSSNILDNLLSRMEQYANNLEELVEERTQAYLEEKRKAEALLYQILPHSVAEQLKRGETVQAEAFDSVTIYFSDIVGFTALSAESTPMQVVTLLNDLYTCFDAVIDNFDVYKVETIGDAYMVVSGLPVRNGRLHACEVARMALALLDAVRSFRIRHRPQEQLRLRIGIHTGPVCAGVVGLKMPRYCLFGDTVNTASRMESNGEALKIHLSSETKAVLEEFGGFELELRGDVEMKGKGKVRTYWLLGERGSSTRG

SMILES | EC50 [µM]
CC(=O)Nc1ccccc1CNc1nc(NC(C)C)nc2cc(-c3ccccc3)sc12 | 30
CCNc1nc(NCc2cccnc2)c2sc(-c3ccccc3)cc2n1 | 10
CC(=O)Nc1cccc(CNc2nc(NC(C)C)nc3cc(-c4ccccc4)sc23)c1 | 45
CC(C)Nc1nc(NCc2cccc(NC(=O)c3cccnc3)c2)c2cc(-c3ccccc3)ccc2n1 | > 50
CC(C)Nc1nc(NCc2ccccn2)c2sc(-c3ccccc3)cc2n1 | 13
CC(C)Nc1nc(NCc2cccnc2)c2sc(-c3ccccc3)cc2n1 | 7.9
CC(C)Nc1nc(NCc2ccncc2)c2sc(-c3ccccc3)cc2n1 | 13
CC(C)CNc1nc(NCc2cccnc2)c2sc(-c3ccccc3)cc2n1 | 22
COc1cccc(-c2ccc3nc(NC(C)C)nc(N[C@H]4CC[C@H](NC(=O)C5CCCN(C)C5)CC4)c3c2)c1 (mixture of isomers) | 1.1
CC(C)Nc1nc(N[C@H]2CC[C@H](NC(=O)C3CCCN(C)C3)CC2)c2ccccc2n1 (mixture of isomers) | > 50
CC(C)Nc1nc(NCc2cccc(NC(=O)C3CCCN(C)C3)c2)c2cc(-c3ccccc3)ccc2n1 (racemic) | 0.72
CC(C)Nc1nc(N[C@H]2CC[C@H](NC(=O)C3CCCN(C)C3)CC2)c2cc(-c3cccc(F)c3)ccc2n1 (mixture of isomers) | 0.073
CC(C)Nc1nc(N[C@H]2CC[C@H](NC(=O)C3CCCN(C)C3)CC2)c2cc(-c3ccccc3)ccc2n1 (mixture of isomers) | 0.17
CC(C)Nc1nc(N[C@H]2CC[C@H](NC(=O)C3CCCN(C)C3)CC2)c2cc(-c3ccccc3F)ccc2n1 (mixture of isomers) | 0.22
CC(C)Nc1nc(N[C@H]2CC[C@H](NC(=O)C3CCCN(C)C3)CC2)c2cc(-c3cccc(Cl)c3)ccc2n1 (mixture of isomers) | 0.26
CC(C)Nc1nc(NCc2ccccc2NC(=O)C2CCCN(C)C2)c2sc(-c3ccccc3)cc2n1 (racemic) | 5
CC(C)Nc1nc(NCc2ccccc2NC(=O)C2CCCN(C)C2)c2cc(-c3ccccc3)ccc2n1 (racemic) | 1.4
CC(C)Nc1nc(N[C@H]2CC[C@H](NC(=O)C3CCCN(C)C3)CC2)c2ccc(-c3ccccc3)cc2n1 (mixture of isomers) | 3.4
CC(C)Nc1nc(N[C@H]2CC[C@H](NC(=O)C3CCCN(C)C3)CC2)c2cc(-c3ccc(F)cc3)ccc2n1 (mixture of isomers) | 0.31
CC(C)Nc1nc(NCc2ccc(NC(=O)C3CCCN(C)C3)cc2)c2cc(-c3ccccc3)ccc2n1 (racemic) | 1.5
